Reference: US9278100B2, “Inhibitors of bruton's tyrosine kinase for the treatment of solid tumors” (Pharmacyclics LLC, priority 2008, dated 2016)
pIC50: −log10 of the molar value. Values belong to the compound of their own block, whether it stands above or below them.

What was measured:
[1] = Plasma concentrations in orally dosed rats; type: in vivo, Male jugular vein cannulated rats; settings: rat, 8 mg/kg single dose by oral gavage, in combination
Procedure: Male jugular vein cannulated rats were administered a single dose of all test compounds at 8 mg/kg each, in combination by oral gavage. Dose volumes were adjusted based on body weight data collected immediately prior to dosing. Blood samples were collected at 0.0833 (5 minutes), 0.333 (20 minutes), 1, 3, 6, 9, and 24 hours post-dosing from orally dosed rats. The samples were collected into plasma separator Microtainer tubes with anticoagulant (lithium heparin). Plasma samples were prepared by centrifugation (5 min at 5000×g), and at least 100 μL were transferred to storage tubes and stored frozen at −80° C. Plasma samples were thawed and 75 uL aliquots were transferred to centrifuge tubes to which 10 μL aliquots of internal standard solution (1 μg/mL) were added. The samples were not diluted with blank plasma prior to further processing. Soluble proteins were precipitated by the addition of 200 μL of acetonitrile, followed by centrifugation (20 min at 16,000×g). The samples were evaporated to dryness and reconstituted in 200 μL of water containing 0.2% formic acid and 10% methanol. All samples were loaded onto an autosampler maintained at 6° C. and evaluated for concentrations of test compounds using LC-MS/MS.

HER4 = HER4 (Homo sapiens (Human), UniProt Q15303); assay: HotSpot kinase assay, HER4; type: biochemical; settings: Table 1, first of two rows printed HER4; 1 uM ATP
proteinuria = assay: Mouse MRL/lpr model of lupus; type: in vivo, MRL/lpr mice; settings: 3.125 mg/kg, 12.5 mg/kg, and 50 mg/kg orally once per day
mast cell degranulation = assay: Mouse passive cutaneous anaphylaxis model; type: in vivo; settings: increasing doses, single oral dose
Procedure: (FIG. 4) Mice were sensitized with an intradermal injection of monoclonal anti-DNP-IgE in the back. […] After one hour, animals were challenged with an intravenous injection of DNP-BSA and Evans Blue dye. Mast cell degranulation leads to vascular permeability and the distribution of the dye into the skin of the back. The area of extravasation after 1 hour is measured.

Ramos = assay: Sensitivity of Ramos cell line; type: cell-based
Excerpt: To identify biomarkers that correlate with response to Compound 1, phosphorylation events in the BCR signal transduction pathway were investigated.

normal human B cells = assay: B cell activation after brief exposure and washout (CD69); type: cell-based; settings: 1 hour exposure, washed three times, IgM F(ab')2 stimulation 18 hours
Procedure: B cells were purified from blood from healthy donors by negative selecting using the RosetteSep Human B cell enrichment cocktail. […] After incubation for 1 hour at 37° C., cells were washed three times using an 8-fold dilution in growth media for each wash. Cells were then stimulated with 10 ug/ml of IgM F(ab′)2 for 18 hours at 37° C. Cells were then stained with anti-CD69-PE antibody and analyzed by flow cytometry using standard conditions.

[2] = test system: Btk expressing B cell lymphoma cell lines; assay: Sensitivity of a panel of nine Btk expressing B cell lymphoma cell lines; type: cell-based; settings: two cell lines with low pERK levels
Procedure: After 72 hours, cell number was measured using Alamar Blue using manufacturer's protocol. A dilution series of untreated cells was run in parallel to verify that the Alamar Blue assay reliably reflected cell number and that growth conditions, were not limiting. […] GI50 values were confirmed in two or more separate experiments for each cell line.
A panel of nine Btk expressing B cell lymphoma cell lines was screened for basal pERK levels.

MDA-MB-453 xenograft = assay: MDA-MB-453 breast cancer xenograft; type: in vivo, nude mice; settings: 50 mg/kg or 5 mg/kg daily, tumor volume (FIG. 8)
Excerpt: An MDA-MB-453 breast cancer xenograft was implanted under the skin of a nude mouse. […] The volume of the tumor xenograft was monitored daily.

BTK = BTK (Homo sapiens (Human), UniProt Q06187); assay: HotSpot kinase assay, BTK; type: biochemical; settings: Table 2; 1 uM ATP, one hour incubation with inhibitor
[3] = biological target: Tec family kinases, including Btk, and Src family kinases; assay: In vitro profiling against a panel of greater than 100 kinases; type: biochemical
Excerpt: By way of example only and in some embodiments, the observed potency, selectivity, and cell permeability of compounds such as Compound 2 are appropriate to incorporate these molecules into a Kinase-targeted, activity based probe that allows direct visualization of Kinase activity in intact cells. […] Without limiting the scope of the compositions and methods described herein, it is postulated that the structural basis for the selectivity is covalent modification of a non-catalytic cysteine residue (Cys 481 in Btk) that is conserved in the ATP binding pocket of the Tec family and several other kinases.

Chain of BTK (Q06187 whole entry): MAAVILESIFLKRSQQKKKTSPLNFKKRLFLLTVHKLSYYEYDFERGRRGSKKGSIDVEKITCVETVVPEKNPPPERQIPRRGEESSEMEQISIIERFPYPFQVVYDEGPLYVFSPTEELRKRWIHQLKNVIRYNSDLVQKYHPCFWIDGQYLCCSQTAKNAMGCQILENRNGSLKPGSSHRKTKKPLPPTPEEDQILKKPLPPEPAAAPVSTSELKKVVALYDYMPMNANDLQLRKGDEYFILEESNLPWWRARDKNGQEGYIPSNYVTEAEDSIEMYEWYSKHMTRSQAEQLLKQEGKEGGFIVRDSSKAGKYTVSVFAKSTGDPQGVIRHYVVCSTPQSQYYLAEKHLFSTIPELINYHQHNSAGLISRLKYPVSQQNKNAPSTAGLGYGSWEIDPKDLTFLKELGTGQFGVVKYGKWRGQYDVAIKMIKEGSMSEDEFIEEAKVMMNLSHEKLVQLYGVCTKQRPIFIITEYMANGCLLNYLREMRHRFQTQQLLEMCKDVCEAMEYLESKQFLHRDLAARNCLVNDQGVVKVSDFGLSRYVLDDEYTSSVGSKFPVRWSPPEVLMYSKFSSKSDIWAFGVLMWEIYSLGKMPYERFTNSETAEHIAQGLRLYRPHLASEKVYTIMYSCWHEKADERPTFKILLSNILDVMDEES
Chain of HER4 (Q15303 other isoform, or with tags, fused parts or gaps): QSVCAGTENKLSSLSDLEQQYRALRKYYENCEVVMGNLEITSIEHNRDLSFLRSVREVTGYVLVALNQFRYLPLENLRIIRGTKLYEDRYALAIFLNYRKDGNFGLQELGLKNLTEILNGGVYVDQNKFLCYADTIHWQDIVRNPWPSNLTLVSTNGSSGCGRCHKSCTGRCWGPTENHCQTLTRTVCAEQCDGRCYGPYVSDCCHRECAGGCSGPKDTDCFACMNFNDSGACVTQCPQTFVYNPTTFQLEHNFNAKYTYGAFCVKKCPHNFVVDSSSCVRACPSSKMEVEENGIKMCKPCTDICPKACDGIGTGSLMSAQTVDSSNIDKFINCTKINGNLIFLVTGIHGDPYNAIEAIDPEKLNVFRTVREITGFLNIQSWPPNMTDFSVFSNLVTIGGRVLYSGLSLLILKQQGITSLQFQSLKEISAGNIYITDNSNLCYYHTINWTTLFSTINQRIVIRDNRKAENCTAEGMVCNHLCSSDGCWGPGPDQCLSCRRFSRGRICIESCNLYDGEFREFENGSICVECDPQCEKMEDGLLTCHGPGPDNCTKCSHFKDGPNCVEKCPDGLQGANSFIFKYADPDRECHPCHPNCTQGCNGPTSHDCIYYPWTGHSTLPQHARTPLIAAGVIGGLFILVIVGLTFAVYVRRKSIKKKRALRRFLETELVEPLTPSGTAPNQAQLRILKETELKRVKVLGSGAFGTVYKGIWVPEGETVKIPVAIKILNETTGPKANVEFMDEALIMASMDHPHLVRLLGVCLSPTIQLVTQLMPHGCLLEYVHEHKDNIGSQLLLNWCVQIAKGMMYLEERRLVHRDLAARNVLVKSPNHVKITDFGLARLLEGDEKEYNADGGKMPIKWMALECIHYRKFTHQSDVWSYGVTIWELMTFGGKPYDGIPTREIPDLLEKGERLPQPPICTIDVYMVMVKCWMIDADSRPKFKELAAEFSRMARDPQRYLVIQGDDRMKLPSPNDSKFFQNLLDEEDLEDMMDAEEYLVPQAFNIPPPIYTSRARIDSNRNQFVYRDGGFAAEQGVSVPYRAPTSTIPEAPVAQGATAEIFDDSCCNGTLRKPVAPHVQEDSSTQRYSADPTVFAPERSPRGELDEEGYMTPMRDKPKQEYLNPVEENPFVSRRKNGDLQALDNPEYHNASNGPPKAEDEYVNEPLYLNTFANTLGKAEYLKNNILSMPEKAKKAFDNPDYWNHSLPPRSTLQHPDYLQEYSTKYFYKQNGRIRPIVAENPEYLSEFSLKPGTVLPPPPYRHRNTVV

Compound: C=CC(=O)N1CCC[C@@H](n2nc(-c3ccc(Oc4ccccc4)cc3)c3c(N)ncnc32)C1 [Compound 1]
- proteinuria (proteinuria): significantly reduced proteinuria
- amount of Evans Blue release (mast cell degranulation): significantly decrease the amount of Evans Blue release
- sensitivity to compound (Ramos): resistant
- inhibition of B cell activation (normal human B cells): sufficient to inhibit B cell activation
- in vivo half-life [1]: short half-life
- sensitivity to compound [2]: resistant
- efficacy in xenograft (MDA-MB-453 xenograft): efficacy

Compound: CN(C/C=C/C(=O)N1CCCC(n2nc(-c3ccc(Oc4ccccc4)cc3)c3c(N)ncnc32)C1)CCO (centres unmarked) [Compound 3]
- pIC50 (BTK): 7.68

Compound: CN(C)C/C=C/C(=O)N1CCC[C@@H](n2nc(-c3ccc(Oc4ccccc4)cc3)c3c(N)ncnc32)C1 [Compound 2]
- kinase panel profile [3]: highly potent and selective inhibitor of Tec family kinases

Further lines, results first:

- in vivo half-life [1]: short half-life
Compound: CN(C)C/C=C/C(=O)N1CCC[C@H]1Cn1nc(-c2ccc(Oc3ccccc3)cc2)c2c(N)ncnc21 [Compound 12, (E)-1-((S)-2-((4-amino-3-(4-phenoxyphenyl)-1H-pyrazolo[3,4-d]pyrimidin-1-yl)methyl)pyrrolidin-1-yl)-4-(dimethylamino)but-2-en-1-one]

- pIC50 (HER4): 5.81
Compound: C=CC(=O)N[C@H]1CC[C@@H](n2nc(-c3ccc(Oc4ccccc4)cc3)c3c(N)ncnc32)CC1 [Compound 9]
